# Experimental data as given in US20170321163A1, “ENZYME STABILIZERS” (Henkel AG & Co. KGaA, priority 2014, published 2017).
# Test system: protease
# Test: Storage stability of protease in detergent formulation, residual proteolytic activity by AAPF-pNA assay
# Type: biochemical
# Details: 1% candidate compound, 1% protease in detergent formulation; stored 8 weeks at 30° C.; AAPF-pNA substrate, 25° C., pH 8.6, 410 nm
# Experimental: The storage stability of protease-containing detergents and cleaning agents was tested for use as enzyme stabilizers in the presence of candidate compounds. For this purpose, the candidate compounds were formulated in the presence of up to 1% (w/w) 1,2-propanediol in a detergent or cleaning agent formulation (see Table 2). The protease (1% PUR) was then added to the formulation, and the formulation stored for 8 weeks at 30° C.
# In parallel batches, the proteolytic activity of 1% protease was determined in 4% PG (1,2-propanediol), 85% matrix (see Table 1), then, each following incubation with 1% of the candidate compound (specified in w/w; QS 100% with water) determined in half of the batches in the formulation as indicated in Table 1 by the release of the chromophore para-nitroaniline from the succinyl-alanine-alanine-proline-phenylalanine para-nitroanilide substrate (AAPF-pNA; Bachem L-1400). The release of the pNA caused an increase in the absorbance at 410 nm, the progress over time of which is a measure of enzymatic activity. […]
# For evaluation, the initial values for the proteolytic activity of the agent in question were compared to the values determined after storage. […] The stabilizing effect of each tested compound is thus measured as a relative percentage increase in the residual protease activity.
compound,measurement,value
CC(=O)[O-].CCn1cc[n+](C)c1 [1-ethyl-3-methylimidazolium acetate],Relative residual activity after incubation with KV,122%
